Measured values reported in the NIST ThermoML archive (doi:10.1021/je060411g).

Assay: molar heat capacity at constant pressure
Conditions: 101.33 kPa

CC(C)C(C)O (stereo unspecified) [3-methyl-2-butanol]
Conditions | molar heat capacity at constant pressure [J/K/mol]
84.8 K, Glass | 64.32
85.35 K, Glass | 64.92
86.61 K, Glass | 65.12
87.96 K, Glass | 65.91
88.5 K, Glass | 66.12
88.57 K, Glass | 66.46
89.76 K, Glass | 68.19
90.5 K, Glass | 68.52
91.72 K, Glass | 69.65
92.44 K, Glass | 69.5
93.66 K, Glass | 70.82
94.37 K, Glass | 70.42
95.6 K, Glass | 72.69
96.3 K, Glass | 72.33
97.54 K, Glass | 73.76
98.24 K, Glass | 73.35
99.48 K, Glass | 75.44
100.17 K, Glass | 75.01
101.42 K, Glass | 76.81
102.11 K, Glass | 76.45
103.37 K, Glass | 78.23
104.06 K, Glass | 77.94
105.32 K, Glass | 79.77
106 K, Glass | 79.31
107.95 K, Glass | 80.89
109.9 K, Glass | 82.57
110.42 K, Glass | 83.46
110.85 K, Glass | 82.24
111.85 K, Glass | 84.29
112.07 K, Glass | 84.44
113.8 K, Glass | 85.97
114.04 K, Glass | 86.22
115.76 K, Glass | 87.69
116 K, Glass | 87.96
117.71 K, Glass | 89.53
119.67 K, Glass | 91.4
121.44 K, Glass | 93.27
121.62 K, Glass | 93.55
122.07 K, Glass | 94.36
123.27 K, Glass | 95.77
123.58 K, Glass | 95.92
125.24 K, Glass | 98.99
125.53 K, Glass | 98.88
127.2 K, Glass | 102.7
127.49 K, Glass | 103.22
129.14 K, Glass | 107.45
134.82 K, Liquid | 136.07
135.09 K, Liquid | 140.35
136.74 K, Liquid | 138.24
137.01 K, Liquid | 138.6
138.7 K, Liquid | 138.95
138.97 K, Liquid | 138.85
140.69 K, Liquid | 139.38
140.95 K, Liquid | 139.07
142.67 K, Liquid | 139.54
142.93 K, Liquid | 139.3
144.66 K, Liquid | 139.76
144.91 K, Liquid | 139.63
146.65 K, Liquid | 140.2
146.9 K, Liquid | 139.94
148.63 K, Liquid | 140.52
148.88 K, Liquid | 140.31
150.86 K, Liquid | 140.31
152.85 K, Liquid | 140.9
154.84 K, Liquid | 141.35
156.74 K, Liquid | 142.41
156.82 K, Liquid | 141.64
158.09 K, Liquid | 142.73
158.81 K, Liquid | 142.09
160.22 K, Liquid | 143.13
160.79 K, Liquid | 142.41
162.32 K, Liquid | 143.63
162.78 K, Liquid | 142.9
164.37 K, Liquid | 144.12
164.76 K, Liquid | 143.07
166.39 K, Liquid | 145.96
166.75 K, Liquid | 143.51
168.38 K, Liquid | 145.62
168.73 K, Liquid | 143.97
170.37 K, Liquid | 146.06
170.72 K, Liquid | 144.62
172.37 K, Liquid | 145.89
172.7 K, Liquid | 145.15
174.37 K, Liquid | 146.25
174.69 K, Liquid | 145.71
176.36 K, Liquid | 147.39
176.67 K, Liquid | 146.37
178.34 K, Liquid | 147.47
178.66 K, Liquid | 147.29
180.33 K, Liquid | 147.95
180.64 K, Liquid | 148.09
182.33 K, Liquid | 148.74
182.63 K, Liquid | 149.07
184.32 K, Liquid | 149.21
184.61 K, Liquid | 149.6
186.31 K, Liquid | 149.62
186.6 K, Liquid | 150.32
188.3 K, Liquid | 149.99
188.59 K, Liquid | 150.72
190.3 K, Liquid | 150.82
190.58 K, Liquid | 151.56
192.29 K, Liquid | 151.37
192.57 K, Liquid | 152.24
194.28 K, Liquid | 152
194.56 K, Liquid | 152.93
196.27 K, Liquid | 152.73
196.55 K, Liquid | 153.74
198.26 K, Liquid | 153.78
198.54 K, Liquid | 154.39
200.25 K, Liquid | 154.7
200.53 K, Liquid | 155.32
202.24 K, Liquid | 155.43
202.51 K, Liquid | 156.2
204.23 K, Liquid | 156.17
204.5 K, Liquid | 157.11
206.21 K, Liquid | 156.91
206.48 K, Liquid | 158.08
208.2 K, Liquid | 157.81
208.47 K, Liquid | 159.14
210.18 K, Liquid | 158.87
210.46 K, Liquid | 160.17
212.17 K, Liquid | 159.83
214.15 K, Liquid | 160.86
216.12 K, Liquid | 161.85
218.08 K, Liquid | 163.18
220.04 K, Liquid | 164.39
221.99 K, Liquid | 165.9
223.93 K, Liquid | 167.49
225.86 K, Liquid | 168.89
227.79 K, Liquid | 170.77
229.71 K, Liquid | 172.05
231.62 K, Liquid | 173.69
233.53 K, Liquid | 175.59
235.43 K, Liquid | 177.3
237.32 K, Liquid | 178.86
239.2 K, Liquid | 180.5
241.08 K, Liquid | 182.29
242.96 K, Liquid | 184.02
244.82 K, Liquid | 185.3
246.68 K, Liquid | 187.07
248.53 K, Liquid | 188.6
250.37 K, Liquid | 190.8
252.21 K, Liquid | 192.67
254.03 K, Liquid | 194.25
255.85 K, Liquid | 196.29
257.67 K, Liquid | 198.36
259.47 K, Liquid | 200.36
261.27 K, Liquid | 202.49
263.06 K, Liquid | 204.59
264.84 K, Liquid | 206.44
266.62 K, Liquid | 208.79
268.39 K, Liquid | 210.85
270.15 K, Liquid | 212.97
271.91 K, Liquid | 215.09
273.66 K, Liquid | 217.48
275.41 K, Liquid | 219.86
277.14 K, Liquid | 222.01
278.87 K, Liquid | 224.26
280.6 K, Liquid | 226.68
282.31 K, Liquid | 228.97
284.02 K, Liquid | 230.98
285.72 K, Liquid | 233.15
287.42 K, Liquid | 234.9
289.11 K, Liquid | 237.64
290.79 K, Liquid | 239.38
292.47 K, Liquid | 241.39
294.15 K, Liquid | 243.38
295.81 K, Liquid | 245.77
297.47 K, Liquid | 247.45
299.13 K, Liquid | 249.65
300.78 K, Liquid | 250.94
